From PubChem BioAssay AID1963985 (Molecular Pharmacology Branch, DTP, NCI, 2024)
Blank lines part the entries; values can stand above or below the compound they belong to.

Test system: 252836-082-R-J2-PDC tumor spheroids, viability
Test: Anticancer human tumor 252836-082-R-J2-PDC patient-derived head and neck squamous cell carcinoma cell line growth inhibition [PI3K]
Conditions: spheroids with HUVEC and MSC; for IC50: curve of first compound; for viability, T/C: stronger effect = lower value
Summary of the method: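 Spheroid viability read-out. Co-cultures contained the tumor line plus HUVEC and human MSCs. Each agent was paired with a PI3K inhibitor (inavolisib, alpelisib, duvelisib, copanlisib) across half-log dilutions starting at clinical Cmax, or at 10 microM when Cmax was unknown.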

[1] = second compound 0.0316 µM, first compound 0.0316 µM
[2] = second compound 0.0316 µM, first compound 0.1 µM
[3] = second compound 0.0316 µM, first compound 0.316 µM
[4] = second compound 0.0316 µM, first compound 1 µM
[5] = second compound 0.0316 µM, first compound 3.16 µM
[6] = second compound 0.0316 µM, first compound 10 µM
[7] = second compound 0.1 µM, first compound 0.0316 µM
[8] = second compound 0.1 µM, first compound 0.1 µM
[9] = second compound 0.1 µM, first compound 0.316 µM
[10] = second compound 0.1 µM, first compound 1 µM
[11] = second compound 0.1 µM, first compound 3.16 µM
[12] = second compound 0.1 µM, first compound 10 µM
[13] = second compound 0.316 µM, first compound 0.0316 µM
[14] = second compound 0.316 µM, first compound 0.1 µM
[15] = second compound 0.316 µM, first compound 0.316 µM
[16] = second compound 0.316 µM, first compound 1 µM
[17] = second compound 0.316 µM, first compound 3.16 µM
[18] = second compound 0.316 µM, first compound 10 µM
[19] = second compound 1 µM, first compound 0.0316 µM
[20] = second compound 1 µM, first compound 0.1 µM
[21] = second compound 1 µM, first compound 0.316 µM
[22] = second compound 1 µM, first compound 1 µM
[23] = second compound 1 µM, first compound 3.16 µM
[24] = second compound 1 µM, first compound 10 µM
[25] = second compound 3.16 µM, first compound 0.0316 µM
[26] = second compound 3.16 µM, first compound 0.1 µM
[27] = second compound 3.16 µM, first compound 0.316 µM
[28] = second compound 3.16 µM, first compound 1 µM
[29] = second compound 3.16 µM, first compound 3.16 µM
[30] = second compound 3.16 µM, first compound 10 µM
[31] = second compound 10 µM, first compound 0.0316 µM
[32] = second compound 10 µM, first compound 0.1 µM
[33] = second compound 10 µM, first compound 0.316 µM
[34] = second compound 10 µM, first compound 1 µM
[35] = second compound 10 µM, first compound 3.16 µM
[36] = second compound 10 µM, first compound 10 µM
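Also: spheroids exposed to agents for seven days before readout.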
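For viability, T/C in this document: percent of vehicle DMSO control viability so 100% = untreated growth.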

IC50 (second compound 0.0316 µM): > 10 µM | IC50 (second compound 0.1 µM): > 10 µM | IC50 (second compound 0.316 µM): > 10 µM | IC50 (second compound 1 µM): 4.45 µM | IC50 (second compound 3.16 µM): < 0.0316 µM | IC50 (second compound 10 µM): < 0.0316 µM
SMILES: C#Cc1c(F)ccc2cc(O)cc(-c3ncc4c(N5CC6CCC(C5)N6)nc(OCC56CCCN5CC(F)C6)nc4c3F)c12 (stereo not given) + Cc1nc(NC(=O)N2CCCC2C(N)=O)sc1-c1ccnc(C(C)(C)C(F)(F)F)c1
viability, T/C [1]: 96.4% | viability, T/C [2]: 82.3% | viability, T/C [3]: 98.8% | viability, T/C [4]: 76.5% | viability, T/C [5]: 72.2% | viability, T/C [6]: 69.2% | viability, T/C [7]: 92.4% | viability, T/C [8]: 78.4% | viability, T/C [9]: 76.9% | viability, T/C [10]: 78% | viability, T/C [11]: 63.6% | viability, T/C [12]: 67.4% | viability, T/C [13]: 70.2% | viability, T/C [14]: 64.7% | viability, T/C [15]: 71.1% | viability, T/C [16]: 58.4% | viability, T/C [17]: 60.8% | viability, T/C [18]: 53.5% | viability, T/C [19]: 54.4% | viability, T/C [20]: 54.9% | viability, T/C [21]: 53.9% | viability, T/C [22]: 60.4% | viability, T/C [23]: 54.9% | viability, T/C [24]: 37.7% | viability, T/C [25]: 41.9% | viability, T/C [26]: 40.6% | viability, T/C [27]: 44.5% | viability, T/C [28]: 40.9% | viability, T/C [29]: 39.7% | viability, T/C [30]: 22% | viability, T/C [31]: 36.3% | viability, T/C [32]: 35.2% | viability, T/C [33]: 31.5% | viability, T/C [34]: 25% | viability, T/C [35]: 25.7% | viability, T/C [36]: 9.29%

IC50 (second compound 0.0316 µM): > 10 µM | IC50 (second compound 0.1 µM): > 10 µM | IC50 (second compound 0.316 µM): > 10 µM | IC50 (second compound 1 µM): > 10 µM | IC50 (second compound 3.16 µM): < 0.0316 µM | IC50 (second compound 10 µM): < 0.0316 µM
SMILES: C=CC(=O)N1CCN(c2nc(=O)n(-c3c(C)ccnc3C(C)C)c3nc(-c4c(O)cccc4F)c(F)cc23)C(C)C1 (stereo not given) + Cc1nc(NC(=O)N2CCCC2C(N)=O)sc1-c1ccnc(C(C)(C)C(F)(F)F)c1
viability, T/C [1]: 101% | viability, T/C [2]: 87.1% | viability, T/C [3]: 104% | viability, T/C [4]: 95.7% | viability, T/C [5]: 107% | viability, T/C [6]: 107% | viability, T/C [7]: 78.5% | viability, T/C [8]: 82.1% | viability, T/C [9]: 101% | viability, T/C [10]: 79.5% | viability, T/C [11]: 105% | viability, T/C [12]: 95.8% | viability, T/C [13]: 79.9% | viability, T/C [14]: 83.2% | viability, T/C [15]: 76% | viability, T/C [16]: 86.5% | viability, T/C [17]: 84.5% | viability, T/C [18]: 80.9% | viability, T/C [19]: 61.2% | viability, T/C [20]: 60.4% | viability, T/C [21]: 80.3% | viability, T/C [22]: 73% | viability, T/C [23]: 64.9% | viability, T/C [24]: 75.9% | viability, T/C [25]: 47.2% | viability, T/C [26]: 49.1% | viability, T/C [27]: 50.2% | viability, T/C [28]: 49.2% | viability, T/C [29]: 74% | viability, T/C [30]: 44.9% | viability, T/C [31]: 37.2% | viability, T/C [32]: 34.5% | viability, T/C [33]: 36.3% | viability, T/C [34]: 36.5% | viability, T/C [35]: 40.2% | viability, T/C [36]: 42.2%

IC50 (second compound 0.0316 µM): < 0.0316 µM | IC50 (second compound 0.1 µM): < 0.0316 µM | IC50 (second compound 0.316 µM): < 0.0316 µM | IC50 (second compound 1 µM): < 0.0316 µM | IC50 (second compound 3.16 µM): < 0.0316 µM | IC50 (second compound 10 µM): < 0.0316 µM
SMILES: CC1(C)CCC(Nc2ncc(C(F)(F)F)c(-c3c[nH]c4c(P(C)(C)=O)c(C#N)ccc34)n2)CN1 (stereo not given) + Cc1nc(NC(=O)N2CCCC2C(N)=O)sc1-c1ccnc(C(C)(C)C(F)(F)F)c1
viability, T/C [1]: 39.2% | viability, T/C [2]: 27.6% | viability, T/C [3]: 33.3% | viability, T/C [4]: 30.5% | viability, T/C [5]: 38.8% | viability, T/C [6]: 6.62% | viability, T/C [7]: 36.2% | viability, T/C [8]: 33.4% | viability, T/C [9]: 32.2% | viability, T/C [10]: 30.9% | viability, T/C [11]: 38.4% | viability, T/C [12]: 7.19% | viability, T/C [13]: 28.8% | viability, T/C [14]: 27.6% | viability, T/C [15]: 28.4% | viability, T/C [16]: 27.2% | viability, T/C [17]: 32.8% | viability, T/C [18]: 6.05% | viability, T/C [19]: 27.4% | viability, T/C [20]: 26.9% | viability, T/C [21]: 28.2% | viability, T/C [22]: 25.9% | viability, T/C [23]: 23.1% | viability, T/C [24]: 3.48% | viability, T/C [25]: 23.1% | viability, T/C [26]: 21.1% | viability, T/C [27]: 22.7% | viability, T/C [28]: 24% | viability, T/C [29]: 20.9% | viability, T/C [30]: 2.65% | viability, T/C [31]: 15.8% | viability, T/C [32]: 18.1% | viability, T/C [33]: 19.4% | viability, T/C [34]: 17.7% | viability, T/C [35]: 12.7% | viability, T/C [36]: 1.03%

The remaining lines, values behind:

SMILES: CC(Cn1ccc(-c2ccc(C#N)c(Cl)c2)n1)NC(=O)c1cc(C(C)O)[nH]n1 (stereo not given) + Cc1nc(NC(=O)N2CCCC2C(N)=O)sc1-c1ccnc(C(C)(C)C(F)(F)F)c1
IC50 (second compound 0.0316 µM): > 10 µM | IC50 (second compound 0.1 µM): > 10 µM | IC50 (second compound 0.316 µM): > 10 µM | IC50 (second compound 1 µM): > 10 µM | IC50 (second compound 3.16 µM): < 0.0316 µM | IC50 (second compound 10 µM): < 0.0316 µM | viability, T/C [1]: 76.5% | viability, T/C [2]: 75.4% | viability, T/C [3]: 96% | viability, T/C [4]: 85.9% | viability, T/C [5]: 94.3% | viability, T/C [6]: 71.5% | viability, T/C [7]: 99.7% | viability, T/C [8]: 85.1% | viability, T/C [9]: 80.8% | viability, T/C [10]: 85% | viability, T/C [11]: 86.2% | viability, T/C [12]: 81.5% | viability, T/C [13]: 65.4% | viability, T/C [14]: 70.9% | viability, T/C [15]: 72.6% | viability, T/C [16]: 74.5% | viability, T/C [17]: 100% | viability, T/C [18]: 64.7% | viability, T/C [19]: 53.4% | viability, T/C [20]: 58.3% | viability, T/C [21]: 55.5% | viability, T/C [22]: 60.8% | viability, T/C [23]: 54.7% | viability, T/C [24]: 53% | viability, T/C [25]: 46.5% | viability, T/C [26]: 48.2% | viability, T/C [27]: 44.5% | viability, T/C [28]: 55.3% | viability, T/C [29]: 40.8% | viability, T/C [30]: 42.9% | viability, T/C [31]: 34% | viability, T/C [32]: 37.3% | viability, T/C [33]: 39.2% | viability, T/C [34]: 37.3% | viability, T/C [35]: 34.2% | viability, T/C [36]: 31.1%

SMILES: Cn1nccc1Nc1nccc(-c2ccn(C(CO)c3ccc(Cl)c(F)c3)c(=O)c2)n1 (stereo not given) + Cc1nc(NC(=O)N2CCCC2C(N)=O)sc1-c1ccnc(C(C)(C)C(F)(F)F)c1
IC50 (second compound 0.0316 µM): > 10 µM | IC50 (second compound 0.1 µM): > 10 µM | IC50 (second compound 0.316 µM): > 10 µM | IC50 (second compound 1 µM): 7.54 µM | IC50 (second compound 3.16 µM): < 0.0316 µM | IC50 (second compound 10 µM): < 0.0316 µM | viability, T/C [1]: 87% | viability, T/C [2]: 91% | viability, T/C [3]: 91% | viability, T/C [4]: 97.9% | viability, T/C [5]: 104% | viability, T/C [6]: 66% | viability, T/C [7]: 87.4% | viability, T/C [8]: 85.7% | viability, T/C [9]: 79.8% | viability, T/C [10]: 90.6% | viability, T/C [11]: 81.3% | viability, T/C [12]: 62.4% | viability, T/C [13]: 74.7% | viability, T/C [14]: 66.6% | viability, T/C [15]: 81.7% | viability, T/C [16]: 72.8% | viability, T/C [17]: 79.4% | viability, T/C [18]: 57.6% | viability, T/C [19]: 70.8% | viability, T/C [20]: 61.9% | viability, T/C [21]: 63.2% | viability, T/C [22]: 64.6% | viability, T/C [23]: 58% | viability, T/C [24]: 47.3% | viability, T/C [25]: 42.2% | viability, T/C [26]: 46.1% | viability, T/C [27]: 56.9% | viability, T/C [28]: 45% | viability, T/C [29]: 41.9% | viability, T/C [30]: 33.5% | viability, T/C [31]: 34.4% | viability, T/C [32]: 37.2% | viability, T/C [33]: 34.3% | viability, T/C [34]: 23.6% | viability, T/C [35]: 24.5% | viability, T/C [36]: 11.8%
